Test results published in patent US4259235A, “Tricyclic nitrogenous compounds having string plant growth regulating properties” (BASF Aktiengesellschaft, priority 1977, dated 1981).
Where two headings read alike, the source gives them in different places.

Key:
Ipom. spp. = experiment: Herbicidal action, pre- and postemergence application in the greenhouse; format: in vivo, Ipomoea spp.; conditions: Ipomoea, post-emergence; 3.0 kg/ha POST; read-out: % damage
Procedure: (§1) Plastic flowerpots having a volume of 300 cm^3 were filled with a sandy loam and the test plants placed therein (either as seed, as vegetatively reproduced species, or as potted plants, e.g., vines). For preemergence treatment, the active ingredients were suspended or emulsified in water as vehicle and sprayed onto the surface of the soil immediately after sowing by means of finely distributing nozzles. The potted vines were treated by spraying them with the correspondingly diluted liquor. For postemergence treatment, the agents were, as stated above, sprayed in water onto the leaves of the test plants, some liquor also falling onto the soil. In some special cases, solid active ingredients were first dissolved in dimethylformamide and then applied in a total liquor amount of 400 liters of water per hectare. For the postemergence treatment, the plants were first grown to a height of from 3 to 10 cm before being treated. With grasses, the first growth was cut, and the new growth treated 2 to 3 days after cutting. The temperature requirements of the plants were taken into account by placing them in cooler or warmer sections of the greenhouse. The experiments were run for from 4 to 6 weeks, during which time the plants were tended and their reaction to the various treatments was assessed.
(§2) The application rates are given in kg/ha of active ingredient, regardless of the method of application and the amount of water used.
(§3) A 0 to 100 scale was used for the evaluation, 0 denoting normal emergence or no damage (or no inhibition), and 100 denoting non-emergence or complete destruction of the plants. A distinction should be made in the influence on growth between desired changes without any appreciable disadvantageous phytotoxic effects (e.g., purely growth-regulating effects) and those of a phytotoxic herbicical character.

Galium apar. = experiment: as above; format: in vivo, Galium aparine; conditions: post-emergence, read-out: % damage
Procedure: as §1, §2, §3

Lolium mult. = experiment: as above; format: in vivo; conditions: Lolium, post-emergence, read-out: % damage
Procedure: as §1, §2, §3

Mentha piper. = experiment: as above; format: in vivo; conditions: post-emergence; 3.0 kg/ha POST; read-out: % damage
Procedure: as §1, §2, §3

Sinapis alba = experiment: as above; format: in vivo; conditions: post-emergence, read-out: % damage
Procedure: as §1, §2, §3

potted vines = experiment: Tolerance by potted vines in greenhouse; spray application; format: in vivo
Procedure: as §1, §2, §3

Poa pratensis = experiment: Shoot growth, postemergence treatment in the greenhouse (table 25); format: in vivo
Procedure: as §1, §2, §3

Arachys hypogaea = experiment: as above; format: in vivo
Procedure: as §1, §2, §3

Oryza sativa = experiment: as above; format: in vivo
Procedure: as §1, §2, §3

Euphorbia geniculata [1] = experiment: Inhibition of shoot growth by growth regulators, pre- and postemergence (table 27); format: in vivo; conditions: Euphorbia heterophylla, post-emergence, read-out: shoot growth inhibition (%)
Procedure: as §1, §2, §3

Medicago sativa = experiment: as above; format: in vivo; conditions: post-emergence, read-out: shoot growth inhibition (%)
Procedure: as §1, §2, §3

Cynodon dactylon = experiment: Shoot growth, postemergence treatment in the greenhouse (table 26); format: in vivo; conditions: from seed
Procedure: as §1, §2, §3

Hordeum vulgare = experiment: as above; format: in vivo
Procedure: as §1, §2, §3

Euphorbia geniculata [2] = experiment: as above; format: in vivo
Procedure: as §1, §2, §3

SMILES: CC(=O)OC1C2CC(C3N=NC23)C1Nc1ccc(Br)cc1 (stereo not shown)
- pest or weed control at 3000 g/ha (Ipom. spp.): 85%
- pest or weed control at 3000 g/ha (Galium apar.): 65%
- pest or weed control at 3000 g/ha (Lolium mult.; 3.0 kg/ha POST): 100%
- pest or weed control at 3000 g/ha (Lolium mult.; 3.0 kg/ha PRE): 80%
- pest or weed control at 3000 g/ha (Mentha piper.): 95%
- pest or weed control at 3000 g/ha (Sinapis alba; 3.0 kg/ha PRE): 100%

SMILES: BrC1=CC2CC1C1N=NC21 (stereo not shown)
- pest or weed control at 3000 g/ha (Sinapis alba; 3.0 kg/ha POST): 100%

SMILES: BrC1C(Br)C2CC1C1N=NC21 (stereo not shown) [drawing 427]
- Potted vines - leaf damage (potted vines; 4.0 and 8.0 kg/ha): none
- Change in shoot growth (potted vines; 4.0 kg/ha): 14.7 cm
- Change in shoot growth (potted vines; 8.0 kg/ha): 13.3 cm

SMILES: C[N+](C)(C)CCCl [[ClCH2CH2N⊕(CH3)3]⊖, reference compound]
- Shoot length (Poa pratensis; 1.0 kg/ha): 4 cm
- Shoot length (Poa pratensis; 2.0 kg/ha): 4 cm
- Shoot length (Poa pratensis; 4.0 kg/ha): 3 cm
- Shoot length (Arachys hypogaea; 1.0 kg/ha): 16 cm
- Shoot length (Arachys hypogaea; 2.0 kg/ha): 16 cm
- Shoot length (Arachys hypogaea; 4.0 kg/ha): 16 cm
- Shoot length (Oryza sativa; 1.0 kg/ha): 20 cm
- Shoot length (Oryza sativa; 2.0 kg/ha): 20 cm
- Shoot length (Oryza sativa; 4.0 kg/ha): 20 cm

SMILES: c1ccc(C2=NOC3C4CC(C5N=NC45)C23)cc1 (stereo not shown) [drawing 437]
- inhibition at 500 g/ha (Euphorbia geniculata [1]; 0.5 kg/ha PRE): 33%
- inhibition at 1000 g/ha (Euphorbia geniculata [1]; 1.0 kg/ha PRE): 40%
- inhibition at 2000 g/ha (Euphorbia geniculata [1]; 2.0 kg/ha POST): 30%
- inhibition at 4000 g/ha (Euphorbia geniculata [1]; 4.0 kg/ha POST): 30%
- inhibition at 2000 g/ha (Medicago sativa; 2.0 kg/ha POST): 20%
- inhibition at 4000 g/ha (Medicago sativa; 4.0 kg/ha POST): 20%

SMILES: CN(C)NC(=O)CCC(=O)O [drawing 434]
- Shoot length (Poa pratensis; 1.0 kg/ha): 4 cm
- Shoot length (Poa pratensis; 2.0 kg/ha): 4 cm
- Shoot length (Poa pratensis; 4.0 kg/ha): 4 cm
- Shoot length (Arachys hypogaea; 1.0 kg/ha): 12 cm
- Shoot length (Arachys hypogaea; 2.0 kg/ha): 5 cm
- Shoot length (Arachys hypogaea; 4.0 kg/ha): 5 cm

SMILES: Clc1ccc(NC2C(Cl)C3CC2C2N=NC32)cc1 (stereo not shown) [drawing 435]
- Shoot length (Cynodon dactylon; 1.0 kg/ha): 5 cm
- Shoot length (Cynodon dactylon; 2.0 kg/ha): 5 cm
- Shoot length (Hordeum vulgare; 0.5 kg/ha): 12.5 cm
- Shoot length (Hordeum vulgare; 1.0 kg/ha): 12 cm
- Shoot length (Hordeum vulgare; 2.0 kg/ha): 12 cm
- Shoot length (Euphorbia geniculata [2]; 0.5 kg/ha): 9 cm
- Shoot length (Euphorbia geniculata [2]; 1.0 kg/ha): 9 cm
- Shoot length (Euphorbia geniculata [2]; 2.0 kg/ha): 9 cm

SMILES: [O-][N+]1=NC2C3CC(C(Br)C3Br)C21 (stereo not shown)
- pest or weed control at 3000 g/ha (Ipom. spp.): 60%
- pest or weed control at 3000 g/ha (Galium apar.; 3.0 kg/ha POST): 40%
- pest or weed control at 3000 g/ha (Lolium mult.; 3.0 kg/ha POST): 85%
- pest or weed control at 3000 g/ha (Lolium mult.; 3.0 kg/ha PRE): 80%
- pest or weed control at 3000 g/ha (Mentha piper.): 95%
- pest or weed control at 3000 g/ha (Sinapis alba; 3.0 kg/ha PRE): 80%

SMILES: C1C2C3N=NC3C1C1OC21 (stereo not shown) [drawing 433]
- Leaf scorch (footnote x) (Poa pratensis; 1.0, 2.0 and 4.0 kg/ha): limited leaf scorch
- Shoot length (Poa pratensis; 1.0 kg/ha): 2 cm
- Shoot length (Poa pratensis; 2.0 kg/ha): 2 cm
- Shoot length (Poa pratensis; 4.0 kg/ha): 2 cm
- Shoot length (Arachys hypogaea; 1.0 kg/ha): 10 cm
- Shoot length (Arachys hypogaea; 2.0 kg/ha): 10 cm
- Shoot length (Arachys hypogaea; 4.0 kg/ha): 10 cm
- Shoot length (Oryza sativa; 1.0 kg/ha): 16 cm
- Shoot length (Oryza sativa; 2.0 kg/ha): 16 cm
- Shoot length (Oryza sativa; 4.0 kg/ha): 16 cm
